“Also recorded” adds a separate entry of the source. Like-named read-outs stand apart in the source and are kept apart here.
How the values were obtained:
nicotinic receptor [1] = experiment: Resting cortical cerebral blood flow (CBF) in rats, iv administration; format: in vivo, rat; settings: for Resting Cortical CBF, % of Resting CONTROL: mean (SEM), (+) N = 5 rats, (-) N = 3 rats; for effect on resting CBF: 0.1-3.0 mg/kg, result in words
Experimental: (§1) Methods for surgical preparations of rats for electrical stimulation of brain and measurement of cortical CBF are detailed by Linville and Arneric (1991).
(§2) Intravenous (iv) administration of (+) 2-methylpiperidine ((+)2-MP) and (-)2-MP (0.1-3.0 mg/kg) were examined for their effect on mean arterial pressure (MAP), resting CBF and increases in cortical CBF elicited by electrically stimulating the BF (.perspectiveto.25 Hz; 100 uA; 10 sec. train).

nicotinic receptor [2] = experiment: Cortical CBF response elicited by electrical stimulation of the basal forebrain (BF) in rats; format: in vivo, rat; settings: iv; for BF-Elicited CBF Response, % of Resting Cortical CBF: mean (SEM), (+) N = 5 rats, (-) N = 3 rats; for effect on BF-elicited CBF response: 0.1-3.0 mg/kg, result in words
Experimental: as §1, §2

[3] = Mean arterial pressure (MAP) in rats, iv administration; format: in vivo, rat; settings: for Mean Arterial Pressure (MAP): mean (SEM), (+) N = 5 rats, (-) N = 3 rats; for effect on mean arterial pressure / blood pressure: 0.1-3.0 mg/kg, result in words
Experimental: as §1, §2

CD1 mice [4] = experiment: Mouse elevated-plus maze (conflict test, anxiolytic activity); format: in vivo
Experimental: FIG. 1A is a graph of time mice spend in the open arms of the elevated-plusmaze (a conflict test that probes anxiolytic activity) as a function of the dose of (-)nicotine administered to the mice.
FIG. 1B is a graph of time mice spend in the open arms of the elevated-plusmaze as a function of the administration of (+)2-methylpiperidine (0.1 mg/kg) or (-)nicotine administered separately or in combination.
The mouse elevated-plus maze is a conflict test that probes anxiolytic activity (Lister, Pyschopharmacology, 1987, 92:180). It is based on the fact that exposure of mice to an elevated open arm leads to an avoidance response considerably stronger than that evoked by exposure to an enclosed arm.
The apparatus required to perform this test is made of plexiglass and consists of two open arms (17×8 cm) and two enclosed arms (17×8×15 cm) extending from a central platform (8×8 cm). It is mounted on an opaque plexiglass base rising 39 cm above the floor. Mice are released on one of the open arms and the time spent in the open and enclosed arms is recorded during a 5 min. test period.
CD1 mice (n=8 per group) received systemic (-)nicotine injections (0, 0.03, 0.1 or 0.3 mg/kg, IP) fifteen minutes before they were allowed to explore the plus-maze for a 5 minute test period.

Adult male CD1 mice = experiment: Habituation / locomotor activity in automated activity monitors; format: in vivo, mouse; settings: for locomotor activity, first 10 min after introduction to the novel environment: Saline=3680±169
Experimental: Adult male CD1 mice (n=8/group) were injected with (+)2-methylpiperidine (0, 1.0, 3.0 or 10.0 mg/kg, i.p.) immediately prior or 60 min. prior to placement in automated activity monitors (Omnitech, Columbus, Ohio). These enclosures, measuring 40×40×42 cm, are equipped with a series of photocells and generate measurements of a variety of locomotor activities.

[5] = Hypothermia: rectal temperature of mice; format: in vivo, mouse; settings: i.p.; for Rectal temperature 15 min. later: saline 38.3 ± 0.1, mean ± S.E.M.
Experimental: Adult male CD1 mice (n=5-7/group) were injected with (+)2-methylpiperidine (0, 10 or 100 mg/kg, i.p.) and rectal temperatures were assessed (YSI Model 43 TA) 15 min. later.

male CD1 mice = experiment: Acute lethality in mice within 24 hours; format: in vivo, mouse; settings: for Deaths in 24 hours / tolerability: i.p.; for Deaths in 24 hours: mandelic acid salt, deaths/animals; for tolerability: 30 and 100 mg/kg
Description: Compounds were given as the respective mandelic acid salts.

mouse = experiment: (-)Nicotine induced mouse lethality after pretreatment; format: in vivo
[6] = Combined effects of (-)nicotine and (+)2-methylpiperidine on rectal temperatures of mice; format: in vivo, mouse; settings: for Rectal temperature: mean ± S.E.M.
rat brain receptor sites = settings: cited from earlier work
[7] = (-)Nicotine induced mouse lethality after pretreatment; format: in vivo; settings: mouse, in vivo, ip; saline pretreatment; read-out: LD50 [95% C.I.] of (-)nicotine
CD1 mice [8] = settings: known anxiolytic drug, background of the test; cited from earlier work
[9] = 0.1 mg/kg, dose 0: (+) 100 (10), (-) 100 (13)
[10] = 0.1 mg/kg, dose 0: (+) 153 (11), (-) 130 (8)
[11] = 0.1 mg/kg, dose 0: (+) 76 (3), (-) 90 (6)
[12] = pretreatment 10.0 mg/kg, (-)nicotine 3 mg/kg
[13] = pretreatment 10.0 mg/kg, (-)nicotine 6 mg/kg
[14] = pretreatment 10.0 mg/kg, (-)nicotine 9 mg/kg

## CC1CCCCN1 (racemic) [(+)2-methylpiperidine, (+)-2-methylpiperidine]
Nicotinic receptor [1]; [9]
  Resting Cortical CBF, % of Resting CONTROL: 126 (15) %
Nicotinic receptor [1]; 0.3 mg/kg
  Resting Cortical CBF, % of Resting CONTROL: 133 (22) %
Nicotinic receptor [1]; 1.0 mg/kg
  Resting Cortical CBF, % of Resting CONTROL: 146 (28) %
Nicotinic receptor [1]; 3.0 mg/kg
  Resting Cortical CBF, % of Resting CONTROL: 140 (27) %
Nicotinic receptor [1]; listed as (+)2-MP
  effect on resting CBF: effective in enhancing resting CBF
Nicotinic receptor [1]; listed as (+)-2MP
  effect on resting CBF: enhanced
Nicotinic receptor [2]; [10]
  BF-Elicited CBF Response, % of Resting Cortical CBF: 203 (21) %
Nicotinic receptor [2]; 0.3 mg/kg
  BF-Elicited CBF Response, % of Resting Cortical CBF: 222 (20) %
Nicotinic receptor [2]; 1.0 mg/kg
  BF-Elicited CBF Response, % of Resting Cortical CBF: 222 (23) %
Nicotinic receptor [2]; 3.0 mg/kg
  BF-Elicited CBF Response, % of Resting Cortical CBF: 220 (19) %
Nicotinic receptor [2]; listed as (+)2-MP
  effect on BF-elicited CBF response: effective in enhancing resting CBF and the BF-elicited CBF response
Nicotinic receptor [2]; listed as (+)-2MP
  effect on BF-elicited CBF response: enhanced
[3]; [11]
  Mean Arterial Pressure (MAP): 82 (6) mmHg
[3]; 0.3 mg/kg
  Mean Arterial Pressure (MAP): 87 (5) mmHg
[3]; 1.0 mg/kg
  Mean Arterial Pressure (MAP): 92 (7) mmHg
[3]; 3.0 mg/kg
  Mean Arterial Pressure (MAP): 87 (7) mmHg
[3]
  effect on mean arterial pressure / blood pressure: no overt on blood pressure
[3]; listed as (+)2-MP
  effect on mean arterial pressure / blood pressure: No remarkable effects
CD1 mice [4]; (+)2-methylpiperidine 0.1 mg/kg, IP, 5 min prior to (-)nicotine (FIG. 1B), n=8
  anxiolytic activity in combination with a non-effective dose of (-)nicotine: able to enhance the anxiolytic activity of a non-effective dose of (-)nicotine
Adult male CD1 mice; 3.0 mg/kg, i.p., 60 min prior
  locomotor activity, first 10 min after introduction to the novel environment: 3402±164 activity counts
Adult male CD1 mice; 10 mg/kg, i.p., 60 min prior
  locomotor activity, first 10 min after introduction to the novel environment: 3349±126 activity counts
Adult male CD1 mice; 1.0, 3.0 or 10.0 mg/kg, i.p., drug-by-time interaction p<0.02
  effect on the habituation process: dose-related enhancement of the habituation process
Adult male CD1 mice; 3.0 or 10.0 mg/kg, 60 min prior, first 10 min
  effect on locomotor activity (impairment or sedation): did not significantly decrease the high level of locomotor activity
[5]; 10 mg/kg, baseline 38.2 ± 0.1
  Rectal temperature 15 min. later: 38.2 ± 0.1 °C
[5]; 100 mg/kg, baseline 38.3 ± 0.1
  Rectal temperature 15 min. later: 38.2 ± 0.2 °C
[5]; 10 or 100 mg/kg, 15 min, as well as 60 and 120 min later
  effect on rectal temperature: without effect
Male CD1 mice; 30 mg/kg
  Deaths in 24 hours: 0/5
Male CD1 mice; 100 mg/kg
  Deaths in 24 hours: 0/5
Male CD1 mice
  tolerability: well tolerated by male CD1 mice, and did not cause any deaths within 24 hours
mouse; i.p. (-)nicotine, result in words
  effect on the lethality elicited by (-)nicotine: did not potentiate the lethality; also recorded: does not potentiate (-)nicotine induced acute lethality
mouse; pretreatment 0.1 mg/kg, (-)nicotine 3 mg/kg
  DEATHS/24 hours: 0/6
mouse; pretreatment 0.1 mg/kg, (-)nicotine 6 mg/kg
  DEATHS/24 hours: 1/6
mouse; pretreatment 0.1 mg/kg, (-)nicotine 9 mg/kg
  DEATHS/24 hours: 2/6
mouse; [12]
  DEATHS/24 hours: 0/6
mouse; [13]
  DEATHS/24 hours: 1/8
mouse; [14]
  DEATHS/24 hours: 3/6
[6]; (+)2-MP 0.1 mg/kg (so in the source) pretreatment, then (-)nicotine 1.0 mg/kg, * p<0.05
  Rectal temperature: 36.0 ± 0.7 °C
[6]; (+)2-MP 1.0 mg/kg pretreatment, then (-)nicotine 0.3 mg/kg
  Rectal temperature: 37.8 ± 0.2 °C
[6]; (+)2-MP 10.0 mg/kg pretreatment, then (-)nicotine 0.3 mg/kg
  Rectal temperature: 37.5 ± 0.3 °C
[6]; (+)2-MP 10.0 mg/kg pretreatment, then (-)nicotine 1.0 mg/kg, * p<0.05
  Rectal temperature: 36.5 ± 0.5 °C
[6]; (+)2-methylpiperidine 1 and 10 mg/kg, i.p., 3 min. prior to (-)nicotine
  effect on the hypothermic response to (-)nicotine: did not potentiate the hypothermic response to (-)nicotine; also recorded: the hypothermic response of the low dose of (-)nicotine (0.3 mg/kg) was actually attenuated; also recorded: the higher dose of (-)nicotine was unaffected
Rat brain receptor sites; Sloan et al. 1985, listed as (+)isomer of (±)2-methylpiperidine
  enhancement of the binding of nicotine / nicotinic ligands: enhances the binding of nicotinic ligands to rat brain receptor sites

## CC1CCCCN1 (racemic) [(±)-2-methylpiperidine, reference compound]
Rat brain receptor sites; Sloan et al. 1985
  enhancement of the binding of nicotine / nicotinic ligands: high degree of specificity in enhancing the binding of nicotine in the rat brain

## CC1CCCCN1 (single isomer, unassigned; (-)) [(-)2-methylpiperidine, reference compound]
Nicotinic receptor [1]; [9]
  Resting Cortical CBF, % of Resting CONTROL: 99 (32) %
Nicotinic receptor [1]; 0.3 mg/kg
  Resting Cortical CBF, % of Resting CONTROL: 86 (29) %
Nicotinic receptor [1]; 1.0 mg/kg
  Resting Cortical CBF, % of Resting CONTROL: 74 (27) %
Nicotinic receptor [1]; 3.0 mg/kg
  Resting Cortical CBF, % of Resting CONTROL: 70 (30) %
Nicotinic receptor [1]
  effect on resting CBF: no ability to enhance
Nicotinic receptor [2]; [10]
  BF-Elicited CBF Response, % of Resting Cortical CBF: 113 (30) %
Nicotinic receptor [2]; 0.3 mg/kg
  BF-Elicited CBF Response, % of Resting Cortical CBF: 101 (28) %
Nicotinic receptor [2]; 1.0 mg/kg
  BF-Elicited CBF Response, % of Resting Cortical CBF: 88 (26) %
Nicotinic receptor [2]; 3.0 mg/kg
  BF-Elicited CBF Response, % of Resting Cortical CBF: 81 (30) %
Nicotinic receptor [2]
  effect on BF-elicited CBF response: no ability to enhance
[3]; [11]
  Mean Arterial Pressure (MAP): 78 (4) mmHg
[3]; 0.3 mg/kg
  Mean Arterial Pressure (MAP): 83 (4) mmHg
[3]; 1.0 mg/kg
  Mean Arterial Pressure (MAP): 80 (8) mmHg
[3]; 3.0 mg/kg
  Mean Arterial Pressure (MAP): 73 (4) mmHg
Male CD1 mice; 30 mg/kg
  Deaths in 24 hours: 0/5
Male CD1 mice; 100 mg/kg
  Deaths in 24 hours: 0/5
Male CD1 mice
  tolerability: well tolerated by male CD1 mice, and did not cause any deaths within 24 hours
mouse; [12]
  DEATHS/24 hours: 0/6
mouse; [13]
  DEATHS/24 hours: 0/6
mouse; [14]
  DEATHS/24 hours: 4/6

## CN1CCCC1c1cccnc1 (single isomer, unassigned; (-)) [(-)nicotine, reference compound]
CD1 mice [4]; (-)nicotine 0.1 and 0.3 mg/kg, IP, 15 min before test, p<0.05 vs saline, n=8
  time spent in the open arms (anxiolytic effect): significant increase in the time spent by the mice in the open arms
CD1 mice [4]; (-)nicotine dose used in the combination of FIG. 1B
  anxiolytic activity of the low (-)nicotine dose given alone: non-effective
Male CD1 mice; (-)nicotine 9.0 mg/kg
  death of animals: 4 out of 6
  signs of cholinostimulation: dyspnea and decreased activity
[7]
  LD50: 7.7 mg/kg
mouse; (-)nicotine 3 mg/kg, saline pretreatment
  DEATHS/24 hours: 0/6
mouse; (-)nicotine 6 mg/kg, saline pretreatment
  DEATHS/24 hours: 2/8
mouse; (-)nicotine 9 mg/kg, saline pretreatment
  DEATHS/24 hours: 4/6
[6]; (-)nicotine 0.3 and 1.0 mg/kg, i.p.
  effect on temperature: significantly lowered temperature
[6]; saline pretreatment, (-)nicotine 0.3 mg/kg, * p<0.05 vs saline (38.3 ± 0.1)
  Rectal temperature: 36.9 ± 0.2 °C
[6]; saline pretreatment, (-)nicotine 1.0 mg/kg, * p<0.05 vs saline (38.3 ± 0.1)
  Rectal temperature: 36.5 ± 0.6 °C

## CN1C(=O)CN=C(c2ccccc2)c2cc(Cl)ccc21 [diazepam]
CD1 mice [8]
  time spent in open arms, known anxiolytic drugs: increased in a dose-related way
